Data published in article PMC10065799, “High-throughput profiling of sequence recognition by tyrosine kinases and SH2 domains using bacterial peptide display” (eLife, 2023).

Columns and labels:
c-Src kinase domain = c-Src kinase domain (Homo sapiens, UniProt P12931); assay: pTyr-Var library bacterial peptide display kinase screen (enrichment scores); assay type: biochemical
Fyn kinase domain = assay: as above; assay type: biochemical, human
Hck kinase domain = assay: as above; assay type: biochemical, human
c-Abl kinase domain = molecular target: T1, c-Abl kinase domain (Mus musculus, UniProt P00520); assay: as above; assay type: biochemical
T1 sequence (P00520 242-493 limits assumed): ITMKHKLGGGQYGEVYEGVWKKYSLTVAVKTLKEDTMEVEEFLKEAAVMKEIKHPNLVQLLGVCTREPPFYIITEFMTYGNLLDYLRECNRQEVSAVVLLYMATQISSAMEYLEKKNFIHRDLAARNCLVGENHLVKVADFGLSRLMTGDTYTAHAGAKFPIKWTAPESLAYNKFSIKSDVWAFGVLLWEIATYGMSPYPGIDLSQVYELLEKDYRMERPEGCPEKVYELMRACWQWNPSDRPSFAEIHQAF

Jak2 = assay: as above; assay type: biochemical, human
AncSZ kinase domain = assay: as above; assay type: biochemical
Fer kinase domain = assay: as above; assay type: biochemical, mouse
Fes = assay: as above; assay type: biochemical; details: mean of log2 of enrichment over R1-R6
FGFR1 kinase domain = assay: as above; assay type: biochemical, human
FGFR3 kinase domain = assay: as above; assay type: biochemical, human
EPHB1 kinase domain = assay: as above; assay type: biochemical, human
EPHB2 kinase domain = assay: as above; assay type: biochemical, human
MERTK kinase domain = assay: as above; assay type: biochemical, human
[1] = system: 4G10 Platinum pan-phosphotyrosine antibody; assay: Phosphorylated pTyr-Var library selection with biotinylated pan-phosphotyrosine antibody; assay type: binding, mouse; details: enrichment score, sheet SH2-vs-peptide
c-Src SH2 domain = c-Src SH2 domain (Homo sapiens, UniProt P12931); assay: pTyr-Var library SH2 domain screen with SH2-dynabeads (enrichment scores); details: sheet c-Src
SHP2 C-SH2 domain = assay: as above
Grb2 SH2 domain = assay: as above
[2] = mean of log2 of enrichment over R1-R4
[3] = pTyr-Var library, enrichment score, replicate 1
[4] = pTyr-Var library, enrichment score, replicate 3
[5] = pTyr-Var library, enrichment score, replicate 4
[6] = mean of log2 enrichment of reference peptide, n = 5
[7] = pTyr-Var library, reference peptide enrichment, mean of n = 5
[8] = mean of log2 enrichment of reference peptide, n = 4
[9] = pTyr-Var library, reference peptide enrichment, mean of n = 4

## DRVALYIAREG [AACS_Y117]
c-Src kinase domain; [2]
  c-Src mean of log2(enrichment): -1.224
c-Src kinase domain; [3]
  c-Src enrich. R1: 0.458
c-Src kinase domain; [4]
  c-Src enrich. R3: 0.3437
c-Src kinase domain; [5]
  c-Src enrich. R4: 0.4348
Fyn kinase domain; [2]
  Fyn mean of log2(enrichment): -1.315
Fyn kinase domain; [3]
  Fyn enrich. R1: 0.792
Fyn kinase domain; [4]
  Fyn enrich. R3: 0.3214
Fyn kinase domain; [5]
  Fyn enrich. R4: 0.1749
Hck kinase domain; mean of log2(variant) / mean of log2(reference), R1-R4
  Hck mean of log2(enrichment): 0.5689
Hck kinase domain; [3]
  Hck enrich. R1: 0.9245
Hck kinase domain; [4]
  Hck enrich. R3: 0.4813
Hck kinase domain; [5]
  Hck enrich. R4: 0.2133
c-Abl kinase domain; [2]
  c-Abl mean of log2(enrichment): -0.4566
c-Abl kinase domain; [3]
  c-Abl enrich. R1: 0.7622
c-Abl kinase domain; [4]
  c-Abl enrich. R3: 0.701
c-Abl kinase domain; [5]
  c-Abl enrich. R4: 0.6553
Jak2; mean of log2 of enrichment over R1-R3
  Jak2 mean of log2(enrichment): 0.02155
Jak2; [3]
  Jak2 enrich. R1: 0.9714
Jak2; [4]
  Jak2 enrich. R3: 1.09
AncSZ kinase domain; mean of log2 of enrichment over R1-R5
  AncSZ mean of log2(enrichment): -0.07806
AncSZ kinase domain; [3]
  AncSZ enrich. R1: 1.096
AncSZ kinase domain; [4]
  AncSZ enrich. R3: 1.043
AncSZ kinase domain; [5]
  AncSZ enrich. R4: 0.9321
AncSZ kinase domain; pTyr-Var library, enrichment score, replicate 5
  AncSZ enrich. R5: 0.7233
Fer kinase domain; [2]
  Fer mean of log2(enrichment): -1.082
Fer kinase domain; [3]
  Fer enrich. R1: 0.5665
Fer kinase domain; [4]
  Fer enrich. R3: 0.4786
Fer kinase domain; [5]
  Fer enrich. R4: 0.5652
Fes
  Fes mean of log2(enrichment): 0.1816
FGFR1 kinase domain; [6]
  mean of log2(reference): -0.9619
FGFR1 kinase domain; [7]
  ref. mean: 0.5188
FGFR3 kinase domain; [6]
  mean of log2(reference): -0.5381
FGFR3 kinase domain; [7]
  ref. mean: 0.7165
EPHB1 kinase domain; [8]
  mean of log2(reference): -0.6213
EPHB1 kinase domain; [9]
  ref. mean: 0.6707
EPHB2 kinase domain; [8]
  mean of log2(reference): -0.9971
EPHB2 kinase domain; [9]
  ref. mean: 0.5335
MERTK kinase domain; [8]
  mean of log2(reference): -1.387
MERTK kinase domain; [9]
  ref. mean: 0.3952
[1]
  4G10 (mean): 0.8696
c-Src SH2 domain; mean of log2 enrichment of reference peptide, R1-R3
  mean of log2(reference): -1.13
c-Src SH2 domain; reference peptide, mean of R1-R3
  ref. mean: 0.4875
SHP2 C-SH2 domain; SHP2-C SH2, mean of log2 enrichment of reference, R1-R3
  mean of log2(reference): -0.1513
SHP2 C-SH2 domain; reference peptide enrichment score, SHP2-C SH2, mean of R1-R3
  ref. mean: 0.928
Grb2 SH2 domain; Grb2 SH2, mean of log2 enrichment of reference, R1-R3
  mean of log2(reference): -0.1768
Grb2 SH2 domain; reference peptide enrichment score, Grb2 SH2, mean of R1-R3
  ref. mean: 0.8958
